Assay: Stability test in solution (pH 1.2 and pH 6.5)
Assay type: physicochemical
Settings: 1 hour; for Compound's percent residue (%) pH 6.5: 20 mM phosphate buffer pH 6.5, 37° C.; for Compound's percent residue (%) pH 1.2: hydrochloric acid solution pH 1.2, 37° C.
Description: Test 2: Stability Test in Solution
A test to determine the stability of Inventive Compounds (I-A) or (I) in a hydrochloric acid solution (pH 1.2) and 20 mM phosphate buffer (pH 6.5) was conducted in accordance with the following method.
A compound was dissolved in a hydrochloric acid solution (pH 1.2) containing hydrochloric acid and sodium chloride or a 20 mM phosphate buffer (pH 6.5) containing disodium hydrogenphosphate, sodium dihydrogenphosphate and sodium chloride to prepare a solution with a concentration of about 50 ng/mL (near the saturated concentration when the compound was not dissolved). The solution was incubated at 37° C. for 1 hour and the compound's concentration before and after the incubation was quantified by high-performance liquid chromatography to calculate the percent residue of the compound. Compounds having low solubility were assessed as being not applicable.
The percent residues of representative compounds in the hydrochloric acid solution (pH 1.2) and the 20 mM phosphate buffer (pH 6.5) are shown in the following Table 2.

| Compound's percent residue (%) pH 6.5 [%] | Compound's percent residue (%) pH 1.2 [%] | SMILES |
| --- | --- | --- |
| 98 | 98 | CCCO[C@@H]1C[C@@H]2[C@H]([C@]1(N)C(=O)O[C@@H](C)OC(=O)O[C@@H]1C[C@H](C)CC[C@H]1C(C)C)[C@@]2(F)C(=O)O [Example 13, (1R,2R,3R,5R,6R)-2-amino-6-fluoro-2-({(1R)-1-[({[(1R,2S,5R)-5-methyl-2-(propan-2-yl)cyclohexyl]oxy}carbonyl)oxy]ethoxy}carbonyl)-3-propoxybicyclo[3.1.0]hexane-6-carboxylic acid] |
| 97 | 97 | CCCO[C@@H]1C[C@@H]2[C@H]([C@]1(N)C(=O)O[C@H](C)OC(=O)O[C@@H]1C[C@H](C)CC[C@H]1C(C)C)[C@@]2(F)C(=O)O [Example 14, (1R,2R,3R,5R,6R)-2-Amino-6-fluoro-2-({(1S)-1-[({[(1R,2S,5R)-5-methyl-2-(propan-2-yl)cyclohexyl]oxy}carbonyl)oxy]ethoxy}carbonyl)-3-propoxybicyclo[3.1.0]hexane-6-carboxylic acid] |
| 104 | 104 | CCCO[C@@H]1C[C@@H]2[C@H]([C@]1(N)C(=O)OC(C)OC(=O)O[C@H]1C[C@@H](C)CC[C@@H]1C(C)C)[C@@]2(F)C(=O)O (stereo partly drawn) [Example 15-A, (1R,2R,3R,5R,6R)-2-Amino-6-fluoro-2-({1-[({[(1S,2R,5S)-5-methyl-2-(propan-2-yl)cyclohexyl]oxy}carbonyl)oxy]ethoxy}carbonyl)-3-propoxybicyclo[3.1.0]hexane-6-carboxylic acid] |
| 100 | 106 | CC(OC(=O)O[C@@H]1C[C@@H]2CC[C@@]1(C)C2(C)C)OC(=O)[C@@]1(N)[C@H]2[C@@H](C[C@H]1OCc1ccc(F)cc1)[C@]2(F)C(=O)O (stereo partly drawn) [Example 17-B, (1R,2R,3R,5R,6R)-2-Amino-6-fluoro-3-[(4-fluorophenyl)methoxy]-2-({1-[({[(1S,2R,4S)-1,7,7-trimethylbicyclo[2.2.1]heptan-2-yl]oxy}carbonyl)oxy]ethoxy}carbonyl)bicyclo[3.1.0]hexane-6-carboxylic acid] |
| 112 | – | CCCO[C@@H]1C[C@@H]2[C@H]([C@]1(N)C(=O)OC(C)OC(=O)O[C@@H]1C[C@@H]3CC[C@@]1(C)C3(C)C)[C@@]2(F)C(=O)O (stereo partly drawn) [Example 18-B, (1R,2R,3R,5R,6R)-2-Amino-6-fluoro-3-propoxy-2-({1-[({[(1S,2R,4S)-1,7,7-trimethylbicyclo[2.2.1]heptan-2-yl]oxy}carbonyl)oxy]ethoxy}carbonyl)bicyclo[3.1.0]hexane-6-carboxylic acid] |
| 99 | 98 | CC(OC(=O)O[C@H]1C[C@H]2CC[C@]1(C)C2(C)C)OC(=O)[C@@]1(N)[C@H]2[C@@H](C[C@H]1OCc1ccc(F)cc1)[C@]2(F)C(=O)O (stereo partly drawn) [Example 19-A, (1R,2R,3R,5R,6R)-2-Amino-6-fluoro-3-[(4-fluorophenyl)methoxy]-2-({1-[({[(1R,2S,4R)-1,7,7-trimethylbicyclo[2.2.1]heptan-2-yl]oxy}carbonyl)oxy]ethoxy}carbonyl)bicyclo[3.1.0]hexane-6-carboxylic acid] |
| 100 | 106 | CCCO[C@@H]1C[C@@H]2[C@H]([C@]1(N)C(=O)OC(C)OC(=O)O[C@H]1C[C@H]3CC[C@]1(C)C3(C)C)[C@@]2(F)C(=O)O (stereo partly drawn) [Example 20, (1R,2R,3R,5R,6R)-2-Amino-6-fluoro-3-propoxy-2-({1-[({[(1R,2S,4R)-1,7,7-trimethylbicyclo[2.2.1]heptan-2-yl]oxy}carbonyl)oxy]ethoxy}carbonyl)bicyclo[3.1.0]hexane-6-carboxylic acid] |
| 98 | 101 | CC(OC(=O)O[C@H]1C(C)(C)[C@H]2CC[C@]1(C)C2)OC(=O)[C@@]1(N)[C@H]2[C@@H](C[C@H]1OCc1ccc(F)cc1)[C@]2(F)C(=O)O (stereo partly drawn) [Example 21, (1R,2R,3R,5R,6R)-2-Amino-6-fluoro-3-[(4-fluorophenyl)methoxy]-2-({1-[({[(1R,2R,4S)-1,3,3-trimethylbicyclo[2.2.1]heptan-2-yl]oxy}carbonyl)oxy]ethoxy}carbonyl)bicyclo[3.1.0]hexane-6-carboxylic acid] |

More lines, now with the values behind:

| SMILES | Compound's percent residue (%) pH 6.5 [%] | Compound's percent residue (%) pH 1.2 [%] |
| --- | --- | --- |
| CC(OC(=O)O[C@H]1C[C@@H](C)CC[C@@H]1C(C)C)OC(=O)[C@@]1(N)[C@H]2[C@@H](C[C@H]1OCc1ccc(F)cc1)[C@]2(F)C(=O)O (stereo partly drawn) [Example 16-B, (1R,2R,3R,5R,6R)-2-Amino-6-fluoro-3-[(4-fluorophenyl)methoxy]-2-({1-[({[(1S,2R,5S)-5-methyl-2-(propan-2-yl)cyclohexyl]oxy}carbonyl)oxy]ethoxy}carbonyl)bicyclo[3.1.0]hexane-6-carboxylic acid] | 93 | 101 |
| C[C@@H](OC(=O)C12CC3CC(CC(C3)C1)C2)OC(=O)[C@@]1(N)[C@H]2[C@@H](C[C@H]1OCc1ccc(C(F)(F)F)cc1)[C@]2(F)C(=O)O [Example 22, (1R,2R,3R,5R,6R)-2-amino-6-fluoro-2-({(1S)-1-[(tricyclo[3.3.1.1^3,7]decane-1-carbonyl)oxy]ethoxy}carbonyl)-3-{[4-(trifluoromethyl)phenyl]methoxy}bicyclo[3.1.0]hexane-6-carboxylic acid] | 94 | 96 |
| C[C@@H](OC(=O)C12CC3CC(CC(C3)C1)C2)OC(=O)[C@@]1(N)[C@H]2[C@@H](C[C@H]1OCc1cccc(F)c1)[C@]2(F)C(=O)O [Example 23, (1R,2R,3R,5R,6R)-2-amino-6-fluoro-3-[(3-fluorophenyl)methoxy]-2-({(1S)-1-[(tricyclo[3.3.1.1^3,7]decane-1-carbonyl)oxy]ethoxy}carbonyl)bicyclo[3.1.0]hexane-6-carboxylic acid] | 100 | 101 |
| C[C@@H](OC(=O)C12CC3CC(CC(C3)C1)C2)OC(=O)[C@@]1(N)[C@H]2[C@@H](C[C@H]1OCc1cccc(Cl)n1)[C@]2(F)C(=O)O [Example 24, (1R,2R,3R,5R,6R)-2-amino-3-[(6-chloropyridin-2-yl)methoxy]-6-fluoro-2-({(1S)-1-[(tricyclo[3.3.1.1^3,7]decane-1-carbonyl)oxy]ethoxy}carbonyl)bicyclo[3.1.0]hexane-6-carboxylic acid] | 96 | 95 |
| COc1cc([C@@H](C)O[C@@H]2C[C@@H]3[C@H]([C@]2(N)C(=O)O[C@@H](C)OC(=O)C24CC5CC(CC(C5)C2)C4)[C@@]3(F)C(=O)O)ccc1F [Example 25, (1R,2R,3R,5R,6R)-2-amino-6-fluoro-3-[(1R)-1-(4-fluoro-3-methoxyphenyl)ethoxy]-2-({(1S)-1-[(tricyclo[3.3.1.1^3,7]decane-1-carbonyl)oxy]ethoxy}carbonyl)bicyclo[3.1.0]hexane-6-carboxylic acid] | 99 | 98 |
| C[C@@H](OC(=O)C12CC3CC(CC(C3)C1)C2)OC(=O)[C@@]1(N)[C@H]2[C@@H](C[C@H]1OCc1ccc(Cl)cn1)[C@]2(F)C(=O)O [Example 26, (1R,2R,3R,5R,6R)-2-amino-3-[(5-chloropyridin-2-yl)methoxy]-6-fluoro-2-({(1S)-1-[(tricyclo[3.3.1.1^3,7]decane-1-carbonyl)oxy]ethoxy}carbonyl)bicyclo[3.1.0]hexane-6-carboxylic acid] | 94 | 97 |
| C[C@@H](OC(=O)C12CC3CC(CC(C3)C1)C2)OC(=O)[C@@]1(N)[C@H]2[C@@H](C[C@H]1OCc1ccc(Cl)nc1)[C@]2(F)C(=O)O [Example 27, (1R,2R,3R,5R,6R)-2-amino-3-[(6-chloropyridin-3-yl)methoxy]-6-fluoro-2-({(1S)-1-[(tricyclo[3.3.1.1^3,7]decane-1-carbonyl)oxy]ethoxy}carbonyl)bicyclo[3.1.0]hexane-6-carboxylic acid] | 101 | 100 |
| CC(C)CCO[C@@H]1C[C@@H]2[C@H]([C@]1(N)C(=O)O[C@@H](C)OC(=O)C13CC4CC(CC(C4)C1)C3)[C@@]2(F)C(=O)O [Example 29, (1R,2R,3R,5R,6R)-2-amino-6-fluoro-3-(3-methylbutoxy)-2-({(1S)-1-[(tricyclo[3.3.1.1^3,7]decane-1-carbonyl)oxy]ethoxy}carbonyl)bicyclo[3.1.0]nexane-6-carboxylic acid] | 103 | 102 |
| C[C@@H](OC(=O)C12CC3CC(CC(C3)C1)C2)OC(=O)[C@@]1(N)[C@H]2[C@@H](C[C@H]1OC1CCCC1)[C@]2(F)C(=O)O [Example 30, (1R,2R,3R,5R,6R)-2-amino-3-(cyclopentyloxy)-6-fluoro-2-({(1S)-1-[(tricyclo[3.3.1.1^3,7]decane-1-carbonyl)oxy]ethoxy}carbonyl)bicyclo[3.1.0]hexane-6-carboxylic acid] | 102 | 100 |
